Data reported in patent publication US8629157B2, “Pyrrolidine compounds which modulate the CB2 receptor” (Boehringer Ingelheim International GmbH, priority 2009, dated 2014).
Read-outs that look alike come from different tables or passages of the source.

Target: human CB2R (Homo sapiens, UniProt P34972)
Assay: CB2R mediated modulation of cAMP synthesis
Type: cell-based
Outline: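 cAMP measured with the DiscoverX-XS kit after 30 min, 37° C. compound exposure of human CB2R-expressing CHO cells stimulated by 10 uM forskolin (1 mM IBMX, 0.25% BSA).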

[1] = CHO cells expressing human CB2R, inhibition of forskolin-stimulated cAMP synthesis, mean, read-out: CB2 CAMP @ EC50 nM (mean)

Chain of human CB2R (P34972 whole entry): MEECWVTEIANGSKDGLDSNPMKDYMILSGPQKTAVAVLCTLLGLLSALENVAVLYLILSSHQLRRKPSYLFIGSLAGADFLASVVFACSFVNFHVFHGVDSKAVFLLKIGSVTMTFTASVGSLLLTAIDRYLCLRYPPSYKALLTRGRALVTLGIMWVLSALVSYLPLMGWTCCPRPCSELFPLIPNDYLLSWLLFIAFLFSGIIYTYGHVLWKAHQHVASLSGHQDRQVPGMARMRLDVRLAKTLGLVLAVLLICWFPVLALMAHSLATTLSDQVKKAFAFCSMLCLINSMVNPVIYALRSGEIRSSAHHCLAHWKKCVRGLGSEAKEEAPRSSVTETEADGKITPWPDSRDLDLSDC

Compound	EC50 [1]	EC50
Cc1nonc1CNC(=O)[C@@H]1CCCN1c1ccc(Cl)cc1 [(S)-1-(4-Chloro-phenyl)-pyrrolidine-2-carboxylic acid (4-methyl-furazan-3-ylmethyl)-amide]	498 nM	–
CC(C)(C)c1nc(NC(=O)[C@@H]2CCCN2c2ccc(Cl)cc2)sc1C#N [(S)-1-(4-Chloro-phenyl)-pyrrolidine-2-carboxylic acid (4-tert-butyl-5-cyano-thiazol-2-yl)-amide]	–	31.7 nM
CC(C)(C)C1CCC(NC(=O)[C@@H]2CCCN2c2ccc(Cl)cc2)CC1 (stereo partly drawn) [(S)-1-(4-Chloro-phenyl)-pyrrolidine-2-carboxylic acid (4-tert-butyl-cyclohexyl)-amide]	–	7.42 nM
CC(C)(C)c1csc(NC(=O)[C@@H]2CCCN2c2ccc(Cl)cc2)n1 [(S)-1-(4-Chloro-phenyl)-pyrrolidine-2-carboxylic acid (4-tert-butyl-thiazol-2-yl)-amide]	–	30.1 nM
O=C(Nc1nc(C(F)(F)F)co1)[C@@H]1CCCN1c1ccc(Cl)cc1 [(S)-1-(4-Chloro-phenyl)-pyrrolidine-2-carboxylic acid (4-trifluoromethyl-oxazol-2-yl)-amide]	–	5.79 nM
O=C(Nc1cc(C(F)(F)F)ccn1)[C@@H]1CCCN1c1ccc(Cl)cc1 [(S)-1-(4-Chloro-phenyl)-pyrrolidine-2-carboxylic acid (4-trifluoromethyl-pyridin-2-yl)-amide]	–	23.4 nM
O=C(Nc1nc(C(F)(F)F)cs1)[C@@H]1CCCN1c1ccc(Cl)cc1 [(S)-1-(4-Chloro-phenyl)-pyrrolidine-2-carboxylic acid (4-trifluoromethyl-thiazol-2-yl)-amide]	–	89.2 nM
CC1(C)CC(=O)C=C(NC(=O)[C@@H]2CCCN2c2ccc(Cl)cc2)C1 [(S)-1-(4-Chloro-phenyl)-pyrrolidine-2-carboxylic acid (5,5-dimethyl-3-oxo-cyclohex-1-enyl)-amide]	–	17.9 nM
O=C(Nc1nc2cc(Cl)ccc2[nH]1)[C@@H]1CCCN1c1ccc(Cl)cc1 [(S)-1-(4-Chloro-phenyl)-pyrrolidine-2-carboxylic acid (5-chloro-1H-benzimidazol-2-yl)-amide]	–	2.16 nM
Cc1ccc(NC(=O)[C@@H]2CCCN2c2ccc(Cl)cc2)nc1 [(S)-1-(4-Chloro-phenyl)-pyrrolidine-2-carboxylic acid (5-methyl-pyridin-2-yl)-amide]	–	120 nM
O=C(Nc1nnc(-c2ccccc2)s1)[C@@H]1CCCN1c1ccc(Cl)cc1 [(S)-1-(4-Chloro-phenyl)-pyrrolidine-2-carboxylic acid (5-phenyl-1,3,4-thiadiazol-2-yl)-amide]	–	11.2 nM
CC(C)(C)c1nnc(NC(=O)[C@@H]2CCCN2c2ccc(Cl)cc2)s1 [(S)-1-(4-Chloro-phenyl)-pyrrolidine-2-carboxylic acid (5-tert-butyl-1,3,4-thiadiazol-2-yl)-amide]	–	0.098 nM
O=C(Nc1ccc(C(F)(F)F)cn1)[C@@H]1CCCN1c1ccc(Cl)cc1 [(S)-1-(4-Chloro-phenyl)-pyrrolidine-2-carboxylic acid (5-trifluoromethyl-pyridin-2-yl)-amide]	–	35.1 nM
O=C(Nc1cccc(C(F)(F)F)n1)[C@@H]1CCCN1c1ccc(Cl)cc1 [(S)-1-(4-Chloro-phenyl)-pyrrolidine-2-carboxylic acid (6-trifluoromethyl-pyridin-2-yl)-amide]	–	48.8 nM
O=C(NC1CCOCC1)[C@@H]1CCCN1c1ccc(Cl)cc1 [(S)-1-(4-Chloro-phenyl)-pyrrolidine-2-carboxylic acid (tetrahydro-pyran-4-yl)-amide]	–	254 nM
O=C(NCC1CCOCC1)[C@@H]1CCCN1c1ccc(Cl)cc1 [(S)-1-(4-Chloro-phenyl)-pyrrolidine-2-carboxylic acid (tetrahydro-pyran-4-ylmethyl)-amide]	–	415 nM
CC(Cc1ccc(Cl)cc1)NC(=O)[C@@H]1CCCN1c1ccc(Cl)cc1 (stereo partly drawn) [(S)-1-(4-Chloro-phenyl)-pyrrolidine-2-carboxylic acid [2-(4-chloro-phenyl)-1-methyl-ethyl]-amide]	–	270 nM
O=C(NCCC1CCOCC1)[C@@H]1CCCN1c1ccc(Cl)cc1 [(S)-1-(4-Chloro-phenyl)-pyrrolidine-2-carboxylic acid [2-(tetrahydro-pyran-4-yl)-ethyl]-amide]	–	105 nM
CC(C)(CO)c1cc(NC(=O)[C@@H]2CCCN2c2ccc(Cl)cc2)on1 [(S)-1-(4-Chloro-phenyl)-pyrrolidine-2-carboxylic acid [3-(2-hydroxy-1,1-dimethyl-ethyl)-isoxazol-5-yl]-amide]	–	0.378 nM
O=C(Nc1nc(-c2ccc(Cl)cc2)cs1)[C@@H]1CCCN1c1ccc(Cl)cc1 [(S)-1-(4-Chloro-phenyl)-pyrrolidine-2-carboxylic acid [4-(4-chloro-phenyl)-thiazol-2-yl]-amide]	–	84.9 nM

Compound	EC50 [1]	EC50
O=C(Nc1nc(-c2ccc(F)cc2)cs1)[C@@H]1CCCN1c1ccc(Cl)cc1 [(S)-1-(4-Chloro-phenyl)-pyrrolidine-2-carboxylic acid [4-(4-fluoro-phenyl)-thiazol-2-yl]-amide]	–	115 nM
CC(C)(C)c1cc(NC(=O)[C@@H]2CCC(=O)N2c2ccc(C#N)c(F)c2)on1 [(S)-1-(4-Cyano-3-fluoro-phenyl)-5-oxo-pyrrolidine-2-carboxylic acid (3-tert-butyl-isoxazol-5-yl)-amide]	286 nM	–
CC(C)(C)c1cc(NC(=O)[C@@H]2CCC(=O)N2c2ccc(C#N)c(F)c2)no1 [(S)-1-(4-Cyano-3-fluoro-phenyl)-5-oxo-pyrrolidine-2-carboxylic acid (5-tert-butyl-isoxazol-3-yl)-amide]	–	78.5 nM
CC(C)(C)c1cc(NC(=O)[C@@H]2CCCN2Cc2ccc(OC(F)F)cc2)on1 [(S)-1-(4-Difluoromethoxy-benzyl)-pyrrolidine-2-carboxylic acid (3-tert-butyl-isoxazol-5-yl)-amide]	–	8.04 nM
CC(C)(C)c1cc(NC(=O)[C@@H]2CCC(=O)N2c2ccc(C(F)F)cc2)on1 [(S)-1-(4-Difluoromethyl-phenyl)-5-oxo-pyrrolidine-2-carboxylic acid (3-tert-butyl-isoxazol-5-yl)-amide]	–	15.2 nM
CCc1ccc(N2C(=O)CC[C@H]2C(=O)Nc2cc(C(C)(C)C)no2)cc1 [(S)-1-(4-Ethyl-phenyl)-5-oxo-pyrrolidine-2-carboxylic acid (3-tert-butyl-isoxazol-5-yl)-amide]	–	173 nM
Cc1cc(N2C(=O)CC[C@H]2C(=O)Nc2cc(C(C)(C)C)no2)ccc1F [(S)-1-(4-Fluoro-3-methyl-phenyl)-5-oxo-pyrrolidine-2-carboxylic acid (3-tert-butyl-isoxazol-5-yl)-amide]	–	91.2 nM
Cc1cc(N2C(=O)CC[C@H]2C(=O)Nc2cc(C(C)(C)C)on2)ccc1F [(S)-1-(4-Fluoro-3-methyl-phenyl)-5-oxo-pyrrolidine-2-carboxylic acid (5-tert-butyl-isoxazol-3-yl)-amide]	–	362 nM
CC(C)(C)c1cc(NC(=O)[C@@H]2CCCN2Cc2ccc(F)cc2)on1 [(S)-1-(4-Fluoro-benzyl)-pyrrolidine-2-carboxylic acid (3-tert-butyl-isoxazol-5-yl)-amide]	–	0.747 nM
CC(C)(C)c1cc(NC(=O)[C@@H]2CCC(=O)N2c2ccc(CF)cc2)on1 [(S)-1-(4-Fluoromethyl-phenyl)-5-oxo-pyrrolidine-2-carboxylic acid (3-tert-butyl-isoxazol-5-yl)-amide]	–	55.8 nM
CC(C)c1ccc(N2C(=O)CC[C@H]2C(=O)Nc2cc(C(C)(C)C)no2)cc1 [(S)-1-(4-Isopropyl-phenyl)-5-oxo-pyrrolidine-2-carboxylic acid (3-tert-butyl-isoxazol-5-yl)-amide]	–	159 nM
CC(C)(C)c1cc(NC(=O)[C@@H]2CCCN2S(=O)(=O)c2ccc(S(C)(=O)=O)cc2)no1 [(S)-1-(4-Methanesulfonyl-benzenesulfonyl)-pyrrolidine-2-carboxylic acid (5-tert-butyl-isoxazol-3-yl)-amide]	–	183 nM
COc1ccc(N2C(=O)CC[C@H]2C(=O)Nc2cc(C(C)(C)C)no2)cc1 [(S)-1-(4-Methoxy-phenyl)-5-oxo-pyrrolidine-2-carboxylic acid (3-tert-butyl-isoxazol-5-yl)-amide]	–	163 nM
CC(C)(C)c1cc(NC(=O)[C@@H]2CCCN2S(=O)(=O)c2ccc(C(F)(F)F)cc2)no1 [(S)-1-(4-Trifluoromethyl-benzenesulfonyl)-pyrrolidine-2-carboxylic acid (5-tert-butyl-isoxazol-3-yl)-amide]	–	222 nM
O=C(Nc1ccc(C(F)(F)F)cn1)[C@@H]1CCCN1c1ccc(C(F)(F)F)cc1 [(S)-1-(4-Trifluoromethyl-phenyl)-pyrrolidine-2-carboxylic acid (5-trifluoromethyl-pyridin-2-yl)-amide]	–	15.5 nM
CC(C)(C)c1cc(NC(=O)[C@@H]2CCC(=O)N2c2ccc(C#N)cc2)no1 [(S)-1-(4-cyano-phenyl)-5-oxo-pyrrolidine-2-carboxylic acid (5-tert-butyl-isoxazol-3-yl)-amide]	–	59.9 nM
CC(C)(C)c1cc(NC(=O)[C@@H]2CCC(=O)N2c2ccc(F)cc2)no1 [(S)-1-(4-fluoro-phenyl)-5-oxo-pyrrolidine-2-carboxylic acid (5-tert-butyl-isoxazol-3-yl)-amide]	–	35.7 nM
CC(C)(C)c1cc(NC(=O)[C@@H]2CCC(=O)N2c2ccc([N+](=O)[O-])cc2)no1 [(S)-1-(4-nitro-phenyl)-5-oxo-pyrrolidine-2-carboxylic acid (5-tert-butyl-isoxazol-3-yl)-amide]	–	21.1 nM
CC(C)(C)c1cc(NC(=O)[C@@H]2CCCN2c2ncc(Cl)cc2F)on1 [(S)-1-(5-Chloro-3-fluoro-pyridin-2-yl)-pyrrolidine-2-carboxylic acid (3-tert-butyl-isoxazol-5-yl)-amide]	–	0.02 nM
CC(C)(C)c1cc(NC(=O)[C@@H]2CCC(=O)N2c2ccc(Cl)cn2)on1 [(S)-1-(5-Chloro-pyridin-2-yl)-5-oxo-pyrrolidine-2-carboxylic acid (3-tert-butyl-isoxazol-5-yl)-amide]	–	3.44 nM
